This passage reports melting point and ΔPaO2 results from patent US20010006969A1, “PYRIMIDINE NUCLEUS-CONTAINING COMPOUND AND A MEDICAMENT CONTAINING THE SAME FOR A BLOOD OXYGEN PARTIAL PRESSURE AMELIORATION, AND A METHOD FOR PREPARING THE SAME” (priority 1997, published 2001).

Molecules are shown by their SMILES. Structures can show the parent of a compound that is named as a salt.

Test system in one data set: not given
Test: not given
Conditions: not given
`C=CCNc1nc(NCC=C)c2cc(Cl)ccc2n1` [Example 1, 2,4-Diallylamino-6-chloroquinazoline] registered a melting point of 78 to 79 °C. Same read-out and setting: then `C=CCNc1nc(NCC=C)c2cc([N+](=O)[O-])ccc2n1` [Example 3, 2,4-Diallylamino-6-nitroquinazoline], with 198 to 200 °C (dec.); and `C=CCNc1nc(NCCC)nc2ccc([N+](=O)[O-])cc12` [Example 4, 4-Allylamino-6-nitro-2-propylaminoquinazoline], with 197 to 198 °C. Same read-out and setting: the value for `C=CCNc1nc(NCC(C)(C)C)nc2ccc([N+](=O)[O-])cc12` [Example 5, 4-Allylamino-2-neopentylamino-6-nitroquinazoline] was 167 to 168 °C. On the same count and under the same terms, the value for `C=CCNc1nc(NC(C)C=C)nc2ccc([N+](=O)[O-])cc12` (stereo not shown) [Example 65, 4-Allylamino-2-(1-methyl-2-propenylamino)-6-nitroquinazoline] was 123 to 124 °C. In turn, `C=CCNc1nc(NCC(C)(C)C)c2scc(C)c2n1` [Example 67, 2-Allylamino-7-methyl-4-neopentylaminothieno[3,2-d] pyrimidine] returned a melting point of 90 to 92 °C. Still for that read-out and setting: the value for `C=CCNc1nc(NCc2ccccc2)c2scc(C)c2n1` [Example 69, 2-Allylamino-4-benzylamino-7-methylthieno[3,2-d] pyrimidine] was 97 to 98 °C; that for `C=CCNc1nc(NC(CO)CO)c2scc(C)c2n1` [Example 73, 2-Allylamino-4-(1,3-dihydroxypropan-2-yl)amino-7-methylthieno[3,2-d]pyrimidine] was 163 to 164 °C; that for `C=CCNc1nc(NC(C)C)c2scc(C)c2n1` [Example 77, 2-Allylamino-4-isopropylamino-7-methylthieno[3,2-d] pyrimidine] was 106 to 107 °C. On the same count and under the same terms, the value for `C=CCNc1nc(NCCOC)nc2c(C)csc12` [Example 85, 4-Allylamino-2-(2-methoxyethylamino)-7-methylthieno[3,2-d] pyrimidine] was 87 to 88 °C; that for `C=CCNc1nc(NCCC)nc2c(C)csc12` [Example 86, 4-Allylamino-7-methyl-2-propylaminothieno[3,2-d] pyrimidine] was 74 to 75 °C; that for `C=CCNc1nc(NNC(C)(C)C)c2scc(C)c2n1` [Example 89, 2-Allylamino-4-(2-t-butylhydrazino)-7-methylthieno[3,2-d] pyrimidine] was 105 to 107 °C.

`C=CCNc1nc(NC(=O)C(C)(C)C)c2scc(C)c2n1` [Example 90, 2-Allylamino-7-methyl-4-pivaloylaminothieno[3,2-d] pyrimidine]: the melting point fell in the range of 88 to 89 °C.

Molecule `C=CCNc1nc(NC(=O)NC2CCCCC2)c2scc(C)c2n1` [Example 93, 2-Allylamino-4-(cyclohexylcarbamoyl)amino-7-methylthieno[3,2-d]pyrimidine] yielded a melting point of 152 to 153 °C. Same read-out and setting: then `C=CCNC(=O)Nc1nc(NCC=C)nc2c(C)csc12` [Example 96, 2-Allylamino-4-(allylcarbamoyl)amino-7-methylthieno[3,2-d] pyrimidine], with 164 to 165 °C. Still for that read-out and setting: then `C=CCNc1nc(NC(=O)NCCCC)c2scc(C)c2n1` [Example 97, 2-Allylamino-4-(butylcarbamoyl)amino-7-methylthieno[3,2-d] pyrimidine], with 141 °C; and `C=CCNc1nc(NC(=O)N2CCCC2)c2scc(C)c2n1` [Example 98, 2-Allylamino-7-methyl-4-(1-pyrrolidinylcarbonyl)aminothieno[3,2-d]pyrimidine], with 98 to 101 °C; and `C#CCNc1nc(NCC=C)nc2c(C)csc12` [Example 99, 2-Allylamino-7-methyl-4-(2-propynylamino)thieno[3,2-d] pyrimidine], with 95 to 96 °C. The same measure, in the same setting: the value for `C=CCNc1nc(NCC(=C)C)c2scc(C)c2n1` [Example 100, 2-Allylamino-7-methyl-4-(2-methyl-2-propenylamino)thieno[3,2-d]pyrimidine] was 83 °C.

`C=CCNc1nc(NCC=C(C)C)c2scc(C)c2n1` [Example 101, 2-Allylamino-7-methyl-4-(3-methyl-2-butenylamino)thieno[3,2-d]pyrimidine] showed a melting point of 114 to 115 °C. Still for that read-out and setting: the value for `C=CCNc1nc(NC/C=C/c2ccccc2)c2scc(C)c2n1` [Example 102, 2-Allylamino-4-(trans-cinnamylamino)-7-methylthieno[3,2-d] pyrimidine] was 82 to 84 °C.

The molecule `C=CCNc1nc(NCC=C)c2scc(-c3ccccc3)c2n1` [Example 110, 2,4-Diallylamino-7-phenylthieno[3,2-d]pyrimidine] showed a melting point of 98 to 100 °C. Same read-out and setting: the value for `C=CCNc1nc(NCC=C)c2scc(Br)c2n1` [Example 111, 2,4-Diallylamino-7-bromothieno[3,2-d]pyrimidine] was 87 to 88 °C; that for `C=CCNC(=O)CCNc1nc(NCC=C)nc2c(C)csc12` [Example 112, 2-Allylamino-4-[2-(allylcarbamoyl)ethylamino]-7-methylthieno[3,2-d]pyrimidine] was 95 to 96 °C.

A further data set deals with hypoxemic model rats. The data set is described as follows: Determination of oxygen partial pressure increasing action (arterial blood PaO2 gain in hypoxemic model rats). Format: in vivo, Sprague-Dawley male rats. The note with it: quinazoline derivatives; urethane-anesthetized rats, hypoxic state (PaO2≦75 mmHg) by olive oil-charcoal powder suspension; i.v. continuously 0.1 mg/kg/min; PaO2 measured 10 minutes after completion of administration; gain before vs after. The method, then: Determination of oxygen partial pressure increasing action
Actions of the quinazoline derivatives of the present invention to increase oxygen partial pressure in the arterial blood were determined according to the following method:
Sprague-Dawley male rats having body weights of about 250 g were anesthetized (i.p.) with urethane and cannulated to the respiratory tracts, femoral arteries and femoral veins. An olive oil-charcoal powder suspension (10 mg/ml) was introduced in an amount of 0.8 ml/kg through the respiratory tract cannulae into the lungs to cause the rats to hypoxic state (PaO2≦75 mmHg). The quinazoline derivatives listed in Table 1 were intravenously administered to these hypoxemic model rats continuously at a rate of 0.1 mg/kg/min, and arterial blood oxygen partial pressure value (PaO2) of each rat was measured at the time point of 10 minutes after completion of administration using a blood gas analyzer (Ciba Corning 800 series). Gains (APaO2) were determined based on results of PaO2 measurement made before and after administration of the test compounds.
Actions of the thienopyrimidine derivatives of the present invention to increase oxygen partial pressure in the arterial blood were determined according to the following method:
Sprague-Dawley male rats having body weights of about 250 g were anesthetized (i.p.) with urethane and cannulated to the respiratory tracts, femoral arteries and femoral veins. An olive oil-charcoal powder suspension (10 mg/ml) was introduced in an amount of 0.8 ml/kg through the respiratory tract cannulae into the lungs to cause the rats to be under hypoxic state (PaO2 Δ 75 mmHg). The thienopyrimidine derivatives listed in Table 2 were intravenously administered to these hypoxemic model rats continuously at a rate of 0.1 mg/kg/min, and arterial blood oxygen partial pressure value (PaO2) of each rat was measured at the time point of 10 minutes after completion of administration using a blood gas analyzer (Ciba Corning 800 series). Gains (ΔPaO2) were determined based on results of PaO2 measurement made before and after administration of the test compounds.
With `C=CCNc1nc(NCC=C)c2cc(Cl)ccc2n1` [Example 1, 2,4-Diallylamino-6-chloroquinazoline], the ΔPaO2 was found to be 35 mmHg.

In the case of `C=CCNc1nc(NCC=C)c2cc([N+](=O)[O-])ccc2n1` [Example 3, 2,4-Diallylamino-6-nitroquinazoline], the ΔPaO2 is 28 mmHg.

On to `C=CCNc1nc(NCCC)nc2ccc([N+](=O)[O-])cc12` [Example 4, 4-Allylamino-6-nitro-2-propylaminoquinazoline], for which the ΔPaO2 was determined as 34 mmHg.

For the molecule `C=CCNc1nc(NCC(C)(C)C)nc2ccc([N+](=O)[O-])cc12` [Example 5, 4-Allylamino-2-neopentylamino-6-nitroquinazoline], the ΔPaO2 is 43 mmHg. Take `C=CCNc1nc(NCCCCC)c2cc([N+](=O)[O-])ccc2n1` [Example 25, 2-Allylamino-6-nitro-4-pentylaminoquinazoline hydrochloride]: the ΔPaO2 was 46 mmHg. Same read-out and setting: then `C=CCNc1nc(NCCCCCCC)c2cc([N+](=O)[O-])ccc2n1` [Example 26, 2-Allylamino-4-heptylamino-6-nitroquinazoline hydrochloride], with 46 mmHg. Same read-out and setting: the value for `C=CCNc1nc(NC2CCCC2)c2cc([N+](=O)[O-])ccc2n1` [Example 27, 2-Allylamino-4-cyclopentylamino-6-nitroquinazoline hydrochloride] was 35 mmHg; that for `C=CCNc1nc(NC(C)C)c2cc([N+](=O)[O-])ccc2n1` [Example 28, 2-Allylamino-4-isopropylamino-6-nitroquinazoline hydrochloride] was 26 mmHg; that for `C=CCNc1nc(NCCCC)nc2ccc([N+](=O)[O-])cc12` [Example 31, 4-Allylamino-2-butylamino-6-nitroquinazoline hydrochloride] was 36 mmHg. In the case of `C=CCNc1nc(NCc2ccco2)nc2ccc([N+](=O)[O-])cc12` [Example 33, 4-Allylamino-2-furfurylamino-6-nitroquinazoline hydrochloride], the ΔPaO2 was found to be 42 mmHg. Same read-out and setting: the value for `C=CCNc1nc(NC2CCCC2)nc2ccc([N+](=O)[O-])cc12` [Example 34, 4-Allylamino-2-cyclopentylamino-6-nitroquinazoline hydrochloride] was 32 mmHg. On the same count and under the same terms, the value for `C=CCNc1nc(NCCCCC)nc2ccc([N+](=O)[O-])cc12` [Example 35, 4-Allylamino-6-nitro-2-pentylaminoquinazoline hydrochloride] was 34 mmHg; that for `C=CCNc1nc(NC(C)CC)c2cc([N+](=O)[O-])ccc2n1` (stereo not drawn) [Example 49, 2-Allyiamino-4-(l-methylpropylamino)-6-nitroquinazoline hydrochloride] was 32 mmHg.

Still in this data set, the particulars now being: thienopyrimidine derivatives; urethane-anesthetized rats, hypoxic state (PaO2 Δ 75 mmHg) by olive oil-charcoal powder suspension; i.v. continuously 0.1 mg/kg/min; PaO2 measured 10 minutes after completion of administration; gain before vs after.
With `C=CCNc1nc(NC2CCCCC2)c2scc(C)c2n1` [Example 70, 2-Allylamino-4-cyclohexylamino-7-methylthieno[3,2-d] pyrimidine hydrochloride], the ΔPaO2 is 42 mmHg. On the same count and under the same terms, then `C=CCNc1nc(N(CC=C)CC=C)c2scc(C)c2n1` [Example 71, 2-Allylamino-4-diallylamino-7-methylthieno[3,2-d] pyrimidine hydrochloride], with 26 mmHg; and `C=CCNc1nc(NC(C)(C)C)c2scc(CC)c2n1` [Example 104, 2-Allylamino-4-t-butylamino-7-ethylthieno[3,2-d]pyrimidine], with 41 mmHg; and `C=CCNc1nc(NCC=C)c2scc(CCC)c2n1` [Example 105, 2,4-Diallylamino-7-propylthieno[3,2-d]pyrimidine], with 28 mmHg. On the same count and under the same terms, then `C=CCNc1nc(NC(C)(C)C)c2scc(CCC)c2n1` [Example 106, 2-Allylamino-4-t-butylamino-7-propylthieno[3,2-d] pyrimidine], with 28 mmHg.

As for `C=CCNc1nc(NC)c2scc(CCC)c2n1` [Example 107, 2-Allylamino-4-methylamino-7-propylthieno[3,2-d] pyrimidine], the ΔPaO2 is 41 mmHg.

Broadly, the melting point is the temperature, or range, at which the solid turns liquid.
